Results taken from ChEMBL document CHEMBL3865822, “New palbociclib analogues modified at the terminal piperazine ring and their anticancer activities” (Eur J Med Chem, 2016).
Values belong to the molecule of their own block, whether it stands above or below them. Activity calls are given as the source filed them. The calls are words filed in the database; no cut-off is given here.

Legend:
[1] = target: Cyclin-dependent kinase 6 (Homo sapiens, UniProt Q00534); experiment: Inhibition of CDK6 (unknown origin) using histone H1 as substrate after 10 mins in presence of [gamma32P]ATP
Chain of Cyclin-dependent kinase 6 (Q00534 whole entry): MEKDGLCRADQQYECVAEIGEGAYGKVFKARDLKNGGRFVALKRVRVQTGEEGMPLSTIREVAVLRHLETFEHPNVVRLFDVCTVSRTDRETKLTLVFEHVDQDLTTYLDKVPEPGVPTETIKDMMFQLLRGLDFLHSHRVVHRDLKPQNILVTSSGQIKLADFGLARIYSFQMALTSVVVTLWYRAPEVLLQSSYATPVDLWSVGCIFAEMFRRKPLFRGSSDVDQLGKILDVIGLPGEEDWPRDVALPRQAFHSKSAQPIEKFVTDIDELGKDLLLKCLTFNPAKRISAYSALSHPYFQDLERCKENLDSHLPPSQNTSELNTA

[2] = Cytotoxicity against human MDA-MB-231 cells assessed as reduction in cell viability after 48 hrs by CCK8 assay; assay type: functional, cell-based; settings: MDA-MB-231, 48 h
[3] = target: Cyclin-dependent kinase 4 (Homo sapiens, UniProt P11802); experiment: Inhibition of CDK4 (unknown origin) using histone H1 as substrate after 10 mins in presence of [gamma32P]ATP
Chain of Cyclin-dependent kinase 4 (P11802 whole entry): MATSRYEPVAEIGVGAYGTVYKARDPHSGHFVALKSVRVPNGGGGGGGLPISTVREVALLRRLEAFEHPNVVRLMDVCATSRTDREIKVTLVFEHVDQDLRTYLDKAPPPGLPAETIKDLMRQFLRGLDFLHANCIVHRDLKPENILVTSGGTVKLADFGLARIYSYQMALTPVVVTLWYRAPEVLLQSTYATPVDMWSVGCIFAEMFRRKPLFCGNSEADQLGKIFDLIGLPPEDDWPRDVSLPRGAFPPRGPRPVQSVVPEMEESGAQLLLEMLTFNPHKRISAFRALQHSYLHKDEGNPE

[4] = Cytotoxicity against human MCF7 cells assessed as reduction in cell viability after 48 hrs by CCK8 assay; assay type: functional, cell-based; settings: MCF7, 48 h
[5] = Cytotoxicity against human MDA-MB-453 cells assessed as reduction in cell viability after 48 hrs by CCK8 assay; assay type: functional, cell-based; settings: MDA-MB-453, 48 h
MCF7 [6] = experiment: Antitumor activity against human […] human MCF7 cells xenografted in RNU rat assessed as tumor growth inhibition at 100 mg/kg/day, ig administered for 14 days measured on day 15; assay type: functional, organism-based
Rattus norvegicus [7] = experiment: Toxicity in RNU rat xenografted with human MCF7 cells assessed as reduction in body weight at 128.8 mg/kg/day, ig administered for 14 days measured daily during compound dosing; assay type: organism-based; settings: in vivo, po, 336 h
MCF7 [8] = experiment: Antitumor activity against […] human MCF7 cells xenografted in RNU rat assessed as tumor growth inhibition at 128.8 mg/kg/day, ig administered for 14 days measured on day 15; assay type: functional, organism-based
Rattus norvegicus [9] = experiment: Toxicity in RNU rat xenografted with human MCF7 cells assessed as reduction in body weight at 122.4 mg/kg/day, ig administered for 14 days measured daily during compound dosing; assay type: organism-based; settings: in vivo, po, 336 h
MCF7 [10] = experiment: Antitumor activity against […] human MCF7 cells xenografted in RNU rat assessed as tumor growth inhibition at 122.4 mg/kg/day, ig administered for 14 days measured on day 15; assay type: functional, organism-based

IC50 [1]: 28 nM | IC50 [3]: 32 nM
Structure (SMILES): CC(=O)OCOC(=O)N1CCN(c2ccc(Nc3ncc4c(C)c(C(C)=O)c(=O)n(C5CCCC5)c4n3)nc2)CC1
IC50 [2]: > 1000 nM | IC50 [4]: 371 nM | IC50 [5]: 424 nM

Structure (SMILES): CC(=O)c1c(C)c2cnc(Nc3ccc(N4CCN(C(C)=O)CC4)cn3)nc2n(C2CCCC2)c1=O
IC50 [4]: > 2000 nM

Structure (SMILES): CCCC(=O)OCN1CCN(c2ccc(Nc3ncc4c(C)c(C(C)=O)c(=O)n(C5CCCC5)c4n3)nc2)CC1
IC50 [4]: > 2000 nM

Structure (SMILES): COCCN1CCN(c2ccc(Nc3ncc4c(C)c(C(C)=O)c(=O)n(C5CCCC5)c4n3)nc2)CC1
IC50 [4]: 893 nM

Structure (SMILES): CC(=O)c1c(C)c2cnc(Nc3ccc(N4CCNCC4)cn3)nc2n(C2CCCC2)c1=O [PALBOCICLIB]
TGI (MCF7 [6]): Active | IC50 [2]: 580 nM | IC50 [4]: 240 nM | IC50 [5]: 137 nM

Structure (SMILES): CCCCOC(=O)N1CCN(c2ccc(Nc3ncc4c(C)c(C(C)=O)c(=O)n(C5CCCC5)c4n3)nc2)CC1
IC50 [4]: > 2000 nM

IC50 [1]: 18 nM | IC50 [3]: 13 nM
Structure (SMILES): COCCCNCC(=O)N1CCN(c2ccc(Nc3ncc4c(C)c(C(C)=O)c(=O)n(C5CCCC5)c4n3)nc2)CC1
IC50 [2]: 559 nM | IC50 [4]: 105 nM | Activity (Rattus norvegicus [7]): Non-Toxic | TGI (MCF7 [8]): Active | IC50 [5]: 93 nM

Structure (SMILES): CC(=O)c1c(C)c2cnc(Nc3ccc(N4CCN(C(=O)CC#N)CC4)cn3)nc2n(C2CCCC2)c1=O
IC50 [4]: 1520 nM

IC50 [1]: 23 nM | IC50 [3]: 19 nM
Structure (SMILES): CC(=O)c1c(C)c2cnc(Nc3ccc(N4CCN(C(=O)CNCCN)CC4)cn3)nc2n(C2CCCC2)c1=O
Activity (Rattus norvegicus [9]): Non-Toxic | IC50 [2]: 436 nM | IC50 [4]: 223 nM | TGI (MCF7 [10]): Active | IC50 [5]: 259 nM

Structure (SMILES): COC(=O)N1CCN(c2ccc(Nc3ncc4c(C)c(C(C)=O)c(=O)n(C5CCCC5)c4n3)nc2)CC1
IC50 [4]: > 2000 nM

Structure (SMILES): CC(=O)c1c(C)c2cnc(Nc3ccc(N4CCN(CCO)CC4)cn3)nc2n(C2CCCC2)c1=O
IC50 [4]: 689 nM

Structure (SMILES): CC(=O)c1c(C)c2cnc(Nc3ccc(N4CCN(CCC(=O)O)CC4)cn3)nc2n(C2CCCC2)c1=O
IC50 [4]: > 2000 nM

Structure (SMILES): CC(=O)c1c(C)c2cnc(Nc3ccc(N4CCN(C(=O)OC(C)C)CC4)cn3)nc2n(C2CCCC2)c1=O
IC50 [4]: > 2000 nM

IC50 [1]: 34 nM | IC50 [3]: 25 nM
Structure (SMILES): CCN1CCN(c2ccc(Nc3ncc4c(C)c(C(C)=O)c(=O)n(C5CCCC5)c4n3)nc2)CC1
IC50 [2]: > 1000 nM | IC50 [4]: 542 nM | IC50 [5]: 487 nM

Structure (SMILES): CCCCCOC(=O)N1CCN(c2ccc(Nc3ncc4c(C)c(C(C)=O)c(=O)n(C5CCCC5)c4n3)nc2)CC1
IC50 [4]: > 2000 nM

Structure (SMILES): CCCOC(=O)N1CCN(c2ccc(Nc3ncc4c(C)c(C(C)=O)c(=O)n(C5CCCC5)c4n3)nc2)CC1
IC50 [4]: > 2000 nM

Structure (SMILES): CCOC(=O)CN1CCN(c2ccc(Nc3ncc4c(C)c(C(C)=O)c(=O)n(C5CCCC5)c4n3)nc2)CC1
IC50 [4]: > 2000 nM

Structure (SMILES): CC(=O)c1c(C)c2cnc(Nc3ccc(N4CCN(C(=O)OCC(C)C)CC4)cn3)nc2n(C2CCCC2)c1=O
IC50 [4]: > 2000 nM

Structure (SMILES): CC(=O)c1c(C)c2cnc(Nc3ccc(N4CCN(C(=O)CCC(=O)O)CC4)cn3)nc2n(C2CCCC2)c1=O
IC50 [4]: > 2000 nM

Structure (SMILES): CCOC(=O)CCN1CCN(c2ccc(Nc3ncc4c(C)c(C(C)=O)c(=O)n(C5CCCC5)c4n3)nc2)CC1
IC50 [4]: > 2000 nM
